Measurements as given in ChEMBL document CHEMBL1201862, “PubChem BioAssay data set” (2004).
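Growth conditions: 96-well plates. Treatment: test compound, 48 hours, 5 concentrations. Analysis: linear interpolation between bracketing concentrations; unreached endpoints set to highest concentration. The concentration for 50% growth inhibition is given as GI50.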 Active and inactive are the calls of the source. Cut-off read from the data, not from the text of the source: active = GI50 up to about 1.1 µM and inactive = higher.

Tests used:
Assay in all cases: growth of human tumour cells (NCI), 48 h
[1] = tested on: T47D
[2] = tested on: DLD-1
[3] = tested on: DMS-273
[4] = tested on: HOP-18
[5] = tested on: KM-20L2
[6] = tested on: SNB-78
[7] = tested on: XF498
[8] = tested on: DMS-114
[9] = tested on: RXF 631

Compound: Cc1c2c(C#N)nccc2c(C)c2c1c1ccccc1n2Cc1ccccc1
- GI50 [1]: 63.5 µM (inactive)

Compound: O=C1Nc2ccccc2/C1=N/NC(=O)C(O)(c1ccccc1)c1ccccc1
- GI50 [1]: 23.8 µM (inactive)

Compound: COc1ccc(O)cc1C(O)c1ccccc1 (centres undefined)
- GI50 [2]: > 100 µM (inactive)
- GI50 [3]: > 100 µM (inactive)
- GI50 [4]: > 100 µM (inactive)
- GI50 [5]: > 100 µM (inactive)
- GI50 [6]: > 100 µM (inactive)
- GI50 [7]: > 100 µM (inactive)

Compound: CC(C)C(OC(=O)c1cc(NC(=S)c2ccccc2)ccc1Cl)C(C)C
- GI50 [1]: 7.85 µM (inactive)

Compound: NC(CCCNCc1ccccc1O)C(=O)O (centres undefined)
- GI50 [2]: > 100 µM (inactive)
- GI50 [8]: > 100 µM (inactive)
- GI50 [3]: > 100 µM (inactive)
- GI50 [4]: > 100 µM (inactive)
- GI50 [5]: > 100 µM (inactive)
- GI50 [6]: > 100 µM (inactive)

Compound: O=CNc1ccc2c(c1)C(=O)c1ccccc1-2
- GI50 [1]: 76.9 µM (inactive)

Compound: Cc1c2ccccc2c(C)n2c1nc1cc3ccccc3cc12
- GI50 [1]: 6.44 µM (inactive)

Compound: C=CCC1=C(C)C[C@@H]2CCC(=O)C=C12
- GI50 [8]: > 100 µM (inactive)
- GI50 [3]: > 100 µM (inactive)
- GI50 [9]: > 100 µM (inactive)
- GI50 [6]: > 100 µM (inactive)

Compound: O=C(Nc1noc(-c2ccccc2)n1)c1ccccc1CNc1noc(-c2ccccc2)n1
- GI50 [1]: > 100 µM (inactive)

Compound: CN(C)CCNC1=C(Cl)C(=O)c2c(O)ccc(O)c2C1=O
- GI50 [1]: 2.08 µM (inactive)

Compound: O=C(O)COc1cc(-c2ccccc2)nc2cc(F)ccc12
- GI50 [1]: > 100 µM (inactive)

Compound: O=[N+]([O-])/C(C(Cl)=C(Cl)Cl)=C(\N1CCCCC1)n1cncn1
- GI50 [1]: 14.8 µM (inactive)

Compound: Cc1nc2cc([N+](=O)[O-])ccc2c(NCCCN(C)C)c1C
- GI50 [1]: 4.09 µM (inactive)

Compound: COc1c2c(cc3oc(C)cc(=O)c13)OC(=N)C(C(N)=O)C2CC(=O)c1ccc(N)cc1 (centres undefined)
- GI50 [1]: > 100 µM (inactive)

Compound: N#CC(/C(=N/NC(=N)N)C(=O)Nc1ccccc1[N+](=O)[O-])c1nc(-c2ccc([N+](=O)[O-])cc2)cs1 (centres undefined)
- GI50 [2]: > 100 µM (inactive)
- GI50 [8]: > 100 µM (inactive)
- GI50 [3]: > 100 µM (inactive)
- GI50 [5]: > 100 µM (inactive)
- GI50 [6]: > 100 µM (inactive)
- GI50 [7]: > 100 µM (inactive)

Compound: Nc1onc2c1Cc1c(noc1N)-c1ccccc1-2
- GI50 [1]: 27 µM (inactive)

Compound: CCCC(=O)n1[nH]c(=O)n(-c2ccc(Cl)cc2)c1=O
- GI50 [1]: > 100 µM (inactive)

Compound: CC(C)=CC1C[C@H](C2CC=C3C2(C)CCC2[C@@]3(C)C(=O)CC3[C@]2(C)C=CC(=O)[C@]3(C)CO)CO1 (some centres undefined)
- GI50 [8]: 4.23 µM (inactive)
- GI50 [3]: 5.66 µM (inactive)
- GI50 [4]: 11 µM (inactive)
- GI50 [5]: 5.42 µM (inactive)
- GI50 [6]: 13.6 µM (inactive)
- GI50 [7]: 4.93 µM (inactive)

Compound: O=C1Nc2ccccc2N/C1=C\C(=O)c1ccccc1O
- GI50 [2]: > 100 µM (inactive)
- GI50 [8]: > 100 µM (inactive)
- GI50 [3]: > 100 µM (inactive)
- GI50 [4]: > 100 µM (inactive)
- GI50 [5]: > 100 µM (inactive)
- GI50 [6]: > 100 µM (inactive)

Compound: Cc1cc2c(=O)c3ccccc3[nH]c2c(C(=O)O)c1C
- GI50 [2]: > 100 µM (inactive)
- GI50 [8]: > 100 µM (inactive)
- GI50 [3]: > 100 µM (inactive)
- GI50 [5]: > 100 µM (inactive)
- GI50 [6]: 36.6 µM (inactive)
- GI50 [7]: > 100 µM (inactive)

Compound: CC(=O)Nc1ccc(COC(O)CN2CCCCC2)cc1[N+](=O)[O-] (centres undefined)
- GI50 [1]: > 100 µM (inactive)

Compound: c1c2c(cc3c1OCO3)-c1cc3ccc4c(c3c[n+]1CC2)OCO4 [COPTISINE CHLORIDE]
- GI50 [1]: 3.13 µM (inactive)

Compound: CN(C(=O)OC(C)(C)C)[C@H]1CCCC[C@H]1N1CCCC1
- GI50 [1]: > 100 µM (inactive)

Compound: CCC(=C(c1ccc(OCc2ccccc2)cc1)c1ccc(OCc2ccccc2)cc1)c1ccc(OC)cc1
- GI50 [2]: > 100 µM (inactive)
- GI50 [8]: > 100 µM (inactive)
- GI50 [3]: > 100 µM (inactive)
- GI50 [5]: > 100 µM (inactive)
- GI50 [6]: > 100 µM (inactive)
- GI50 [7]: > 100 µM (inactive)

Compound: O=C1C(Cl)=C(NCCN2CCOCC2)C(=O)c2c(O)ccc(O)c21
- GI50 [1]: 1.99 µM (inactive)

Compound: CN(C)/C=C(\C(=O)c1ccccc1)n1nc(-c2ccccc2)cc1-c1ccccc1
- GI50 [1]: > 10 µM (inactive)

Compound: CC(C)CN1CN(c2ccccc2)C2(CCN(CC(C)(c3ccc(F)cc3)C3OCCO3)CC2)C1=O (centres undefined)
- GI50 [1]: 2.75 µM (inactive)

Compound: COc1ccc(CN[C@H]2CCc3cc(OC)c(OC)c(OC)c3-c3ccc(SC)c(=O)cc32)c(OC)c1OC
- GI50 [2]: 0.0327 µM (active)
- GI50 [8]: 0.019 µM (active)
- GI50 [3]: 0.0267 µM (active)
- GI50 [4]: 58.3 µM (inactive)
- GI50 [5]: 0.0185 µM (active)
- GI50 [6]: 0.0394 µM (active)
- GI50 [7]: 0.0308 µM (active)

Compound: CN(c1ccccc1)S(=O)(=O)c1ccccc1[N+](=O)[O-]
- GI50 [1]: 62.5 µM (inactive)

Compound: N#CCCN(CCC#N)c1ccc(C(=N/c2ccc(F)cc2)/N=N/c2ccccc2)cc1
- GI50 [1]: 15.1 µM (inactive)

Compound: COc1ccc2c(c1)-c1nc(=S)n(CCN(C)C)c3ccc([N+](=O)[O-])c(c13)N2
- GI50 [1]: 4.81 µM (inactive)

Compound: CCOC(=O)CCc1cn2cc(Br)nc(OC)c2n1
- GI50 [1]: 46.3 µM (inactive)

Compound: CC(=O)Nc1ccc(S(=O)(=O)N/N=C/CN2C(=O)c3ccccc3C2=O)cc1
- GI50 [2]: > 100 µM (inactive)
- GI50 [8]: > 100 µM (inactive)
- GI50 [3]: > 100 µM (inactive)
- GI50 [5]: > 100 µM (inactive)
- GI50 [7]: > 100 µM (inactive)

Compound: CC(C)(C(=O)N(C(=O)N1CCN(c2ccccc2)CC1)S(=O)(=O)c1ccccc1)c1ccc(Cl)cc1
- GI50 [1]: 29.2 µM (inactive)

Compound: OC1NC2CC3NC(O)C(O)NC3CC2NC1O (centres undefined)
- GI50 [1]: > 100 µM (inactive)

Compound: O=c1c2cc([N+](=O)[O-])cnc2sn1-c1ccc(Br)cc1
- GI50 [1]: 6.32 µM (inactive)
